Measurements from PubChem BioAssay AID1259407 (Chemical Carcinogenesis Research Information System (CCRIS), 2018).
Active and inactive are the calls of the source. No rule for the calls is given here.

Test system: CCRIS mutagenicity, Ames/micronucleus/aberration tests
Assay: CCRIS mutagenicity studies
[1] = Test System: AMES SALMONELLA TYPHIMURIUM, Strain/Indicator: TA98, Metabolic Activation: NONE, Method: PREINCUBATION
[2] = Test System: AMES SALMONELLA TYPHIMURIUM, Strain/Indicator: TA100, Metabolic Activation: NONE, Method: PREINCUBATION
[3] = Test System: AMES SALMONELLA TYPHIMURIUM, Strain/Indicator: TA98, Metabolic Activation: NONE, Method: STANDARD PLATE
[4] = Test System: AMES SALMONELLA TYPHIMURIUM, Strain/Indicator: TA98, Metabolic Activation: RAT, LIVER, S-9, AROCLOR 1254, Method: STANDARD PLATE
[5] = Test System: AMES SALMONELLA TYPHIMURIUM, Strain/Indicator: TA100, Metabolic Activation: NONE, Method: STANDARD PLATE
[6] = Test System: AMES SALMONELLA TYPHIMURIUM, Strain/Indicator: TA100, Metabolic Activation: RAT, LIVER, S-9, AROCLOR 1254, Method: STANDARD PLATE
[7] = Test System: AMES SALMONELLA TYPHIMURIUM, Strain/Indicator: TA1535, Metabolic Activation: NONE, Method: STANDARD PLATE
[8] = Test System: AMES SALMONELLA TYPHIMURIUM, Strain/Indicator: TA1535, Metabolic Activation: RAT, LIVER, S-9, AROCLOR 1254, Method: STANDARD PLATE

CCCCCCCCCCCCCl
mutagenic call (Test System: AMES SALMONELLA TYPHIMURIUM, Strain/Indicator: TA97, Metabolic Activation: HAMSTER, LIVER, S-9, AROCLOR 1254 (10 OR 30%), Method: PREINCUBATION): inactive; negative
mutagenic call (Test System: AMES SALMONELLA TYPHIMURIUM, Strain/Indicator: TA97, Metabolic Activation: NONE, Method: PREINCUBATION): inactive; negative
mutagenic call (Test System: AMES SALMONELLA TYPHIMURIUM, Strain/Indicator: TA97, Metabolic Activation: RAT, LIVER, S-9, AROCLOR 1254 (10 OR 30%), Method: PREINCUBATION): inactive; negative
mutagenic call (Test System: AMES SALMONELLA TYPHIMURIUM, Strain/Indicator: TA98, Metabolic Activation: HAMSTER, LIVER, S-9, AROCLOR 1254 (10 OR 30%), Method: PREINCUBATION): inactive; negative
mutagenic call [1]: inactive; negative
mutagenic call (Test System: AMES SALMONELLA TYPHIMURIUM, Strain/Indicator: TA98, Metabolic Activation: RAT, LIVER, S-9, AROCLOR 1254 (10 OR 30%), Method: PREINCUBATION): inactive; negative
mutagenic call (Test System: AMES SALMONELLA TYPHIMURIUM, Strain/Indicator: TA100, Metabolic Activation: HAMSTER, LIVER, S-9, AROCLOR 1254 (10 OR 30%), Method: PREINCUBATION): inactive; negative
mutagenic call [2]: inactive; negative
mutagenic call (Test System: AMES SALMONELLA TYPHIMURIUM, Strain/Indicator: TA100, Metabolic Activation: RAT, LIVER, S-9, AROCLOR 1254 (10 OR 30%), Method: PREINCUBATION): inactive; negative
mutagenic call (Test System: AMES SALMONELLA TYPHIMURIUM, Strain/Indicator: TA1535, Metabolic Activation: HAMSTER, LIVER, S-9, AROCLOR 1254 (10 OR 30%), Method: PREINCUBATION): inactive; negative
mutagenic call (Test System: AMES SALMONELLA TYPHIMURIUM, Strain/Indicator: TA1535, Metabolic Activation: NONE, Method: PREINCUBATION): inactive; negative
mutagenic call (Test System: AMES SALMONELLA TYPHIMURIUM, Strain/Indicator: TA1535, Metabolic Activation: RAT, LIVER, S-9, AROCLOR 1254 (10 OR 30%), Method: PREINCUBATION): inactive; negative
mutagenic call (Test System: AMES SALMONELLA TYPHIMURIUM, Strain/Indicator: TA1537, Metabolic Activation: HAMSTER, LIVER, S-9, AROCLOR 1254 (30%), Method: PREINCUBATION): inactive; negative
mutagenic call (Test System: AMES SALMONELLA TYPHIMURIUM, Strain/Indicator: TA1537, Metabolic Activation: NONE, Method: PREINCUBATION): inactive; negative
mutagenic call (Test System: AMES SALMONELLA TYPHIMURIUM, Strain/Indicator: TA1537, Metabolic Activation: RAT, LIVER, S-9, AROCLOR 1254 (30%), Method: PREINCUBATION): inactive; negative

CCCCCC(O)CC(=O)CCC1CCC(O)C(OC)C1 (stereo unspecified)
mutagenic call [3]: inactive; negative
mutagenic call [4]: inactive; negative
mutagenic call [5]: inactive; negative
mutagenic call [6]: active; positive
mutagenic call [7]: inactive; negative
mutagenic call [8]: active; positive
mutagenic call (Test System: AMES SALMONELLA TYPHIMURIUM, Strain/Indicator: TA1538, Metabolic Activation: NONE, Method: STANDARD PLATE): inactive; negative
mutagenic call (Test System: AMES SALMONELLA TYPHIMURIUM, Strain/Indicator: TA1538, Metabolic Activation: RAT, LIVER, S-9, AROCLOR 1254, Method: STANDARD PLATE): inactive; negative

C[C@H]1CC[C@@H]2[C@@H](C)[C@H]3[C@H](C[C@H]4[C@@H]5CC=C6C[C@@H](O[C@@H]7O[C@H](CO)[C@@H](O[C@@H]8O[C@@H](C)[C@H](O)[C@@H](O)[C@H]8O)[C@H](O)[C@H]7O[C@@H]7O[C@@H](C)[C@H](O)[C@@H](O)[C@H]7O)CC[C@]6(C)[C@H]5CC[C@]34C)N2C1
mutagenic call [3]: inactive; negative
mutagenic call (Test System: AMES SALMONELLA TYPHIMURIUM, Strain/Indicator: TA98, Metabolic Activation: S-9, Method: STANDARD PLATE): inactive; negative
mutagenic call [5]: inactive; negative
mutagenic call (Test System: AMES SALMONELLA TYPHIMURIUM, Strain/Indicator: TA100, Metabolic Activation: S-9, Method: STANDARD PLATE): inactive; negative

N#CSCSC#N
mutagenic call (Test System: AMES SALMONELLA TYPHIMURIUM, Strain/Indicator: TA98, Metabolic Activation: HAMSTER, LIVER, S-9, AROCLOR 1254, Method: STANDARD PLATE): inactive; negative
mutagenic call [3]: inactive; negative
mutagenic call [4]: inactive; negative
mutagenic call (Test System: AMES SALMONELLA TYPHIMURIUM, Strain/Indicator: TA100, Metabolic Activation: HAMSTER, LIVER, S-9, AROCLOR 1254, Method: STANDARD PLATE): inactive; negative
mutagenic call [5]: inactive; negative
mutagenic call [6]: inactive; negative
mutagenic call (Test System: AMES SALMONELLA TYPHIMURIUM, Strain/Indicator: TA1535, Metabolic Activation: HAMSTER, LIVER, S-9, AROCLOR 1254, Method: STANDARD PLATE): inactive; negative
mutagenic call [7]: inactive; negative
mutagenic call [8]: inactive; negative
mutagenic call (Test System: AMES SALMONELLA TYPHIMURIUM, Strain/Indicator: TA1537, Metabolic Activation: HAMSTER, LIVER, S-9, AROCLOR 1254, Method: STANDARD PLATE): inactive; negative
mutagenic call (Test System: AMES SALMONELLA TYPHIMURIUM, Strain/Indicator: TA1537, Metabolic Activation: NONE, Method: STANDARD PLATE): inactive; negative
mutagenic call (Test System: AMES SALMONELLA TYPHIMURIUM, Strain/Indicator: TA1537, Metabolic Activation: RAT, LIVER, S-9, AROCLOR 1254, Method: STANDARD PLATE): inactive; negative
mutagenic call (Test System: MOUSE LYMPHOMA, Strain/Indicator: L5178Y (TK+/TK-), Metabolic Activation: RAT, LIVER, S-9, AROCLOR 1254, Method: SUSPENSION/PLATE): inactive; negative. reevaluation of results: negative
mutagenic call (Test System: Mouse lymphoma, Strain/Indicator: L5178Y (tk+/tk-), Metabolic Activation: None, Method: Suspension/plate): inactive; negative

CCCCC(C)=O
mutagenic call (Test System: CHINESE HAMSTER V-79, Strain/Indicator: V-79 (HPRT)/6-THIOGUANINE, Metabolic Activation: NONE, Method: STANDARD PLATE): inactive; negative
mutagenic call (Test System: CHINESE HAMSTER V-79, Strain/Indicator: V-79 (HPRT)/6-THIOGUANINE, Metabolic Activation: RAT LIVER S-9, Method: STANDARD PLATE): inactive; negative

c1ccc2c(c1)-c1cccc3cc4ccccc4c-2c13
mutagenic call [3]: inactive; negative
mutagenic call [4]: inactive; negative
mutagenic call [6]: active; positive

Cc1cc(O)c2c(c1O)C(=O)c1ccccc1C2=O
mutagenic call [1]: inactive; negative
mutagenic call (Test System: AMES SALMONELLA TYPHIMURIUM, Strain/Indicator: TA98, Metabolic Activation: RAT, LIVER, S-9, PCB, Method: PREINCUBATION): active; positive
mutagenic call [2]: inactive; negative
mutagenic call (Test System: AMES SALMONELLA TYPHIMURIUM, Strain/Indicator: TA100, Metabolic Activation: RAT, LIVER, S-9, PCB, Method: PREINCUBATION): active; positive

OC1c2ccc3c(c2C2OC2C1O)-c1cccc2cccc-3c12 (stereo unspecified)
mutagenic call (Test System: AMES SALMONELLA TYPHIMURIUM, Strain/Indicator: TA97A, Metabolic Activation: NONE, Method: PREINCUBATION): active; positive
mutagenic call [1]: active; positive
mutagenic call [2]: active; positive

CC(=O)OC[C@]12C[C@H](OC(=O)CC(C)C)C(C)=C[C@H]1O[C@@H]1[C@H](O)[C@@H](OC(C)=O)[C@@]2(C)[C@]12CO2
mutagenic call (Test System: AMES SALMONELLA TYPHIMURIUM, Strain/Indicator: TA98, Metabolic Activation: RAT LIVER S-9, DELOR 103, Method: STANDARD PLATE): inactive; negative
mutagenic call (Test System: AMES SALMONELLA TYPHIMURIUM, Strain/Indicator: TA98, Metabolic Activation: RAT, LIVER, MICROSOMES, PHENOBARBITAL, Method: STANDARD PLATE): inactive; negative
mutagenic call [2]: inactive; negative
mutagenic call (Test System: AMES SALMONELLA TYPHIMURIUM, Strain/Indicator: TA100, Metabolic Activation: RAT LIVER S-9, DELOR 103, Method: STANDARD PLATE): inactive; negative
mutagenic call (Test System: AMES SALMONELLA TYPHIMURIUM, Strain/Indicator: TA100, Metabolic Activation: RAT, LIVER, MICROSOMES, PHENOBARBITAL, Method: STANDARD PLATE): inactive; negative
mutagenic call (Test System: AMES SALMONELLA TYPHIMURIUM, Strain/Indicator: TA100, Metabolic Activation: RAT, LIVER, S-9, PHENOBARBITAL, Method: PREINCUBATION): inactive; negative
mutagenic call (Test System: CHINESE HAMSTER, Strain/Indicator: V-79/6-THIOGUANINE, Metabolic Activation: NONE, Method: STANDARD PLATE): active; positive
mutagenic call (Test System: CHINESE HAMSTER, Strain/Indicator: V-79/6-THIOGUANINE, Metabolic Activation: S-9, Method: STANDARD PLATE): active; positive
